Results on 24 compounds are retold here after US20260217683A1, “PYRIDAZINONE HETEROCYCLIC COMPOUND MYOSIN II INHIBITOR AND USE THEREOF” (Xizang Haisco Pharmaceutical Co., Ltd., priority 2023, published 2026).

Like-named read-outs stand apart in the source and are kept apart here.

Common to all, as to format: biochemical
Test [1] deals with rabbit skeletal muscle myosin. The test can be described thus: Inhibition of hydrolysis of ATP by rabbit skeletal muscle myosin. The procedure:
The purpose of this test was to evaluate the ability of compounds to inhibit the hydrolysis of ATP by rabbit skeletal muscle myosin. The determination method was as follows:
• Preformed F-actin filaments (#AKF99-B, Cytoskeleton) were diluted to 1 mg/mL with Reaction buffer (25 mM Tris-HCL, pH 7.5+35 mM KCl+0.1 mM EGTA+1 mM MgCl2); • Rabbit myosin (#MYO2-A, Cytoskeleton) was diluted to 0.1 mg/mL with Resuspension buffer (15 mM Tris-HCL, PH7.5+0.2 M KCl+1 mM MgCl2); • ATP (#BSA04-001, Cytoskeleton) was diluted to 3 mM working solution with 15 mM Tris-HCL (PH=7.5);
• adding 13 μL reaction buffer+12 μL F-actin to actin control wells; • adding 10 μL reaction buffer+12 μL F-actin+3 μL myosin II to positive control wells; • adding 10 μL of compound working solution+12 μL of F-actin+3 μL of myosin II to the compound wells; • adding 5 μL of ATP working solution to all test wells to start the reaction, and simultaneously adding a sample to the Pi standard wells according to the instruction (#BK054, Cytoskeleton); • gently mixing and accurately incubating at 37° C. for 60 min; • adding 70 μL of CytoPhos Reagent (#BK054, Cytoskeleton) to each well and incubating for 10 min to stop the reaction.
• the OD value of each well was detected at 650 nm using the endpoint method. The standard curve was fitted according to Pi concentration and OD value, and the Pi concentration of each test well was obtained. Inhibition (%)=(Pi positive control well-Pi test well)/Pi positive control well*100%. The Inhibition %-[…] curve was fitted with Graphpad Prism 8 software, and IC50 was calculated.

A further test concerns the target T1, cardiac myosin SII (Bos taurus, UniProt Q9BE39).
T1 construct: purchased Cytoskeleton #MYO3-A
The test can be described thus: Inhibition of hydrolysis of ATP by cardiac myosin SII. To be noted: 100 μM compound. The procedure: The purpose of this test was to evaluate the ability of compounds to inhibit the hydrolysis of ATP by cardiac myosin SII. The determination method was as follows: • 1. Solution formulation: • Preformed F-actin filaments (#AKF99-B, Cytoskeleton) were diluted to 1 mg/mL with Reaction buffer (15 mM Tris-HCL. PH7.5+10 mM KCl+0.1 mM EGTA+2 mM MgCl2); • Cardiac Muscle myosin (#MYO3-A, Cytoskeleton) was diluted to 1 mg/mL with Resuspension buffer (15 mM Tris-HCL, PH7.5+0.2M KCl+1 mM MgCl2); • ATP (#BSA04-001, Cytoskeleton) was diluted to 3 mM working solution with 15 mM Tris-HCL (PH=7.5); • 2. Formulation of working solution of compounds: the final compound concentration was 100 μM • 3. Experimental steps: • adding 10 μL of compound working solution+12 μL of Preformed F-actin filaments+3 μL of Cardiac Muscle myosin to the compound wells; • adding 10 μL of reaction buffer containing DMSO+12 μL Preformed F-actin filaments +3 μL Cardiac Muscle myosin to positive control wells; • adding 10 μL of reaction buffer containing DMSO+12 μL Preformed F-actin filaments +3 μL Resuspension buffer to negative control wells; • adding 5 μL of 3 mM ATP working solution to all test wells to start the reaction, gently mixing and incubating at 37° C. for 2 h; • after the reaction was completed, taking 6 μL of reaction liquid, adding 24 μL of reaction buffer for 5-fold dilution, then detecting the content of the product Pi with a phosphate kit (#BK054, Cytoskeleton); • adding a sample to Pi standard wells according to the instructions; • adding 70 μL of CytoPhos Reagent (#BK054, Cytoskeleton) to each well and incubating at room temperature for 10 min before detection. • 4. Detection: • the OD value of each well was detected at 650 nm. The standard curve was fitted according to Pi standard concentration and OD value, and the Pi concentration of each test well was obtained. Inhibition (%)=(positive control well−test well)/positive control well*100%.

Another test has as its target T2, smooth muscle myosin S1 (Gallus gallus, UniProt P10587).
T2 construct: purchased Cytoskeleton #CS-MYS05
The test can be described thus: Inhibition of hydrolysis of ATP by smooth muscle myosin S1 fragments. The conditions noted are these: 100 μM compound. The procedure:
The purpose of this test was to evaluate the ability of compounds to inhibit the hydrolysis of ATP by smooth muscle myosin Si fragments. The determination method was as follows: • 1. Solution formulation • F-actin polymer: Cardiac Actin powder (#CS-AD99, Cytoskeleton) was dissolved in a buffer (5 mM Pipes-KOH solution, PH=7.0, containing 100 μM ATP and 500 μM DTT) to form a 2 mg/mL solution and the solution was left at room temperature for 30 min; then 2 mM MgCl2 and 2 mM EGTA were added and the obtained system was left at room temperature for 40 min; • Smooth muscle SI fragment (#CS-MYS05, Cytoskeleton) was diluted with a pre-cooled PM12 buffer containing 1 mM DTT (12 mM Pipes-KOH solution, PH=7.0, containing 2 mM MgCl2) to form a 0.7 mg/mL solution; • ATP (#BSA04-001, Cytoskeleton) was diluted to 5 mM working solution with 15 mM Tris-HCL (PH=7.5); • 2. […] Experimental steps: • adding 10 μL of compound working solution+6 μL of F-actin polymer+4 μL of Smooth muscle Si fragment solution to the compound wells; • adding 10 μL of PM12 buffer containing DMSO+6 μL of F-actin polymer+4 μL of Smooth muscle S1 fragment solution to positive control wells; • adding 10 μL of PM12 buffer containing DMSO+6 μL of F-actin polymer+4 μL of PM12 buffer to negative control wells; • adding […] of 5 mM ATP working solution to all test wells to start the reaction, gently mixing and incubating at 37° C. for 20 min; • after the reaction was completed, taking 6 μLL of reaction liquid, adding 24 μL of PM12 buffer for 5-fold dilution, then detecting the content of the product Pi with a phosphate kit (#BK054, Cytoskeleton); • adding a standard according to the instructions, adding 70 μL of CytoPhos Reagent (#BK054, Cytoskeleton) to all wells and incubating at room temperature for 10 min before detection. • 4. Detection: • the OD value of each well was detected at 650 nm. The standard curve was fitted according to Pi standard concentration and OD value, and the Pi concentration of each test well was obtained. Inhibition (%)=(positive control well−test well)/positive control well*100%.

[2] abbreviates: inhibition of hydrolysis of ATP, class symbols, read-out: Rabbit skeletal muscle myosin (IC50).
The mark [3] stands for this setting: read-out: IC50 for inhibition of hydrolysis of ATP by rabbit skeletal muscle myosin.

T1 sequence (Q9BE39 whole entry): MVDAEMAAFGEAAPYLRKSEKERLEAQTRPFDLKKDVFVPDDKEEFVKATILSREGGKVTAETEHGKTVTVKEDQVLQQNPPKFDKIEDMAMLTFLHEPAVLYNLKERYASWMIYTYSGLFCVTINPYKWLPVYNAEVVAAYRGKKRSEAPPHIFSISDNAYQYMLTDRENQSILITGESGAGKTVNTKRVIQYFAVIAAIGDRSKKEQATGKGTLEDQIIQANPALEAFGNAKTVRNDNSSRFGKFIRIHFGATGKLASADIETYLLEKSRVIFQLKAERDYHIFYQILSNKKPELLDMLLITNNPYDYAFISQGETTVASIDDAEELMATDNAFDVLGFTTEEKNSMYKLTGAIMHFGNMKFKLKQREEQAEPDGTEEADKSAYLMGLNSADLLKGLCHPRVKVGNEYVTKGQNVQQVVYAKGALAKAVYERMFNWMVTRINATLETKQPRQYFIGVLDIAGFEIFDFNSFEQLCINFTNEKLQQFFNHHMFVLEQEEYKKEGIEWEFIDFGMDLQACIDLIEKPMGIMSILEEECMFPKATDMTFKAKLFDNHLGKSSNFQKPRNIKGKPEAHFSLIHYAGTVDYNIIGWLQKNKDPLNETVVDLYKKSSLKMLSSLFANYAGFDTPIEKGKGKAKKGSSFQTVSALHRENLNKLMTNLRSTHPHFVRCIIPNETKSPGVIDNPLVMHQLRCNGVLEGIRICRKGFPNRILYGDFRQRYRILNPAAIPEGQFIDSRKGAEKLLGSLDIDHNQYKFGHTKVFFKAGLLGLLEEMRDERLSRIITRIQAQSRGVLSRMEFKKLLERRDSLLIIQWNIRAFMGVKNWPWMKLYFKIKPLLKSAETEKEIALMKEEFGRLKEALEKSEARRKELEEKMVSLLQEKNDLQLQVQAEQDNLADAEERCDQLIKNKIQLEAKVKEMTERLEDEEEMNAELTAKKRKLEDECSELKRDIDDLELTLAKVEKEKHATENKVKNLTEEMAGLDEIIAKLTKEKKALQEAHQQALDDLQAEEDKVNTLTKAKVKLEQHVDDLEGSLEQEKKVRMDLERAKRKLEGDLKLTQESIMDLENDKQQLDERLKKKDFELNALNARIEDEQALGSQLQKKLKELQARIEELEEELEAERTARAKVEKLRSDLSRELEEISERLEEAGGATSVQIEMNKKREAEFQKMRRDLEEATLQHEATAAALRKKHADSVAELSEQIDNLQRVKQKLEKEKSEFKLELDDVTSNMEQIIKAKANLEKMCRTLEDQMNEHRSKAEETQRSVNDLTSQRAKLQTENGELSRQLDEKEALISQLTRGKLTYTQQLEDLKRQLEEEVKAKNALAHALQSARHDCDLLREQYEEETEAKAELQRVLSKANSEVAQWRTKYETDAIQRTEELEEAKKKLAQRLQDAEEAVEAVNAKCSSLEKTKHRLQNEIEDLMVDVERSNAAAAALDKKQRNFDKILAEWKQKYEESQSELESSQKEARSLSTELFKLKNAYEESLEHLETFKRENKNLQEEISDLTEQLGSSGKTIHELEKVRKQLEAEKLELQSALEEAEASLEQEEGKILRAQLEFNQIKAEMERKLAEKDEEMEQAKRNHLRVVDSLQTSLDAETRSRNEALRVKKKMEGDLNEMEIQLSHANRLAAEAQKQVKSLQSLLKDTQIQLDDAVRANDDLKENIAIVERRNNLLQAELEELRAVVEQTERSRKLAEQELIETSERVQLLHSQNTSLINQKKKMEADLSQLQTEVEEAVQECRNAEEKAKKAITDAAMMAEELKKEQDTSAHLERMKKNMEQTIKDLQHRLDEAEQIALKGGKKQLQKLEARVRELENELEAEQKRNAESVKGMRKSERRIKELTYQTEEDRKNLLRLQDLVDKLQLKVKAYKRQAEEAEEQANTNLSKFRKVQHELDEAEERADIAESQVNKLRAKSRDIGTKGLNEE
T1 sequence (P85100 whole entry partner): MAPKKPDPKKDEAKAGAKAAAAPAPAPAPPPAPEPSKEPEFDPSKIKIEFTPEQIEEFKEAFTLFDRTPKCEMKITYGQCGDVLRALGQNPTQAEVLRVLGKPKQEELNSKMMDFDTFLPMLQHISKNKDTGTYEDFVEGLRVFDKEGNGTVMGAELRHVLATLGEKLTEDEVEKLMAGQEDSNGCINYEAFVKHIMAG
T1 sequence (Q3SZE5 whole entry partner): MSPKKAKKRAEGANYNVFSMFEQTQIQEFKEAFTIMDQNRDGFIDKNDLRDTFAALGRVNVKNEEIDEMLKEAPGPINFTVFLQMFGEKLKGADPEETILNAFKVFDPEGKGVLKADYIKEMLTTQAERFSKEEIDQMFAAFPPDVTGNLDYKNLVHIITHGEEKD
T2 sequence (P10587 84-789 limits assumed): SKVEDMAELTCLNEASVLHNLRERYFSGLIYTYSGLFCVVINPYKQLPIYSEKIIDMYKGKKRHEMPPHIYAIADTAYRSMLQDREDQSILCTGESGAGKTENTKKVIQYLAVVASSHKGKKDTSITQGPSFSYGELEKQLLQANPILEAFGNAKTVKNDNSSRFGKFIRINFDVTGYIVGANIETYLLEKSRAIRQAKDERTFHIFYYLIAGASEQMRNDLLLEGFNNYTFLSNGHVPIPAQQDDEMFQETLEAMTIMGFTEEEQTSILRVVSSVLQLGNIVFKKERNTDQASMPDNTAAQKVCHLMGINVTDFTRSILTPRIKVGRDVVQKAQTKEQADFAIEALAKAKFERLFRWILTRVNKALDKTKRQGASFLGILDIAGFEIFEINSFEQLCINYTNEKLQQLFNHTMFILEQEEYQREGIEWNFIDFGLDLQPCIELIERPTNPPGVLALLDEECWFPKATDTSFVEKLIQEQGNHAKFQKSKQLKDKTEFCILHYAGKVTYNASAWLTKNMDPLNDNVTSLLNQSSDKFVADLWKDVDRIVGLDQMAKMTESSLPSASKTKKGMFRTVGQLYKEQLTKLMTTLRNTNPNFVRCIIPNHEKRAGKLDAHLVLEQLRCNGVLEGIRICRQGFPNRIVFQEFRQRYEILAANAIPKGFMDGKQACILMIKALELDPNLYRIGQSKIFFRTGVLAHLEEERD
T2 sequence (P02607 whole entry partner): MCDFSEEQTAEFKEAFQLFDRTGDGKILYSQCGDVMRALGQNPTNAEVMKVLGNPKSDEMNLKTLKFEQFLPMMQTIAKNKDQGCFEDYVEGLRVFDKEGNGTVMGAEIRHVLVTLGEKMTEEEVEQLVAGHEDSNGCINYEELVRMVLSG

As to `O=c1ccc(-c2cnc(OC3CCOCC3)nc2)nn1Cc1ccc2c(c1)CC2` [Compound 95], the IC50 in test [1] (setting [2]) was 2500 to 20000 nM. Further, the inhibition at 100 µM was 2% against cardiac myosin SII and -2% against smooth muscle myosin S1.

With `O=c1ccc(-c2cnc(OCC(F)(F)F)nc2)nn1Cc1ccc2c(c1)C1CC1C2` (stereo not shown) [Compound 159], the IC50 was less than 2500 nM in test [1] (setting [2]) and 400 nM in test [1] (setting [3]). Besides, the “Cardiac myosin SII (Inhibition @ 100 μM)” value at cardiac myosin SII is on record as 7%. Moreover, at smooth muscle myosin S1 (100 µM), the “Smooth muscle myosin S1 (Inhibition @ 100 μM)” value worked out at 5%.

For `O=C1CCc2ccc(Cn3nc(-c4cnc(Oc5csc(C(F)(F)F)c5)nc4)ccc3=O)cc21` [Compound 155], the IC50 in test [1] (setting [2]) is less than 2500 nM. The figures for the inhibition at 100 µM on cardiac myosin SII and on smooth muscle myosin S1 were 1% and 5%, respectively.

`O=C1CCc2ccc(Cn3nc(-c4cnc(Oc5cncc(C(F)(F)F)c5)nc4)ccc3=O)cc21` [Compound 142]: the IC50 in test [1] (setting [2]) lay in the range of 2500 to 20000 nM. Moreover, the values for the inhibition at 100 µM on cardiac myosin SII and against smooth muscle myosin S1 were -8% and 2%, respectively.

As for `O=c1ccc(-c2cnc(OCC3(F)CC3)nc2)nn1Cc1ccc2c(c1)CCC2` [Compound 108], the IC50 is less than 2500 nM in test [1] (setting [2]) and 200 nM in test [1] (setting [3]). Besides, the inhibition at 100 µM on cardiac myosin SII was 4.5%; at smooth muscle myosin S1, -0.9%.

As for `O=c1ccc(-c2cnc(OCC(F)F)nc2)nn1Cc1ccc2c(c1)CCC2` [Compound 67], in test [1] (setting [2]), the IC50 was less than 2500 nM. The values for the inhibition at 100 µM against cardiac myosin SII and at smooth muscle myosin S1 were 2% and 3%, respectively.

As for `O=c1ccc(-c2cnc(OCC(F)(F)F)nc2)nn1Cc1ccc2c(c1)CCCC2(F)F` [Compound 89], the IC50 in test [1] (setting [2]) lay in the range of 2500 to 20000 nM. Further, the inhibition at 100 µM was 13.7% against cardiac myosin SII and 17.6% against smooth muscle myosin S1.

As for `O=c1ccc(-c2cnc(Oc3nccs3)nc2)nn1Cc1ccc2c(c1)CCC2` [Compound 130], in test [1] (setting [2]), the IC50 lay in the range of 2500 to 20000 nM. For the same compound, the results for the inhibition at 100 µM against cardiac myosin SII and on smooth muscle myosin S1 were 3% and 2%, respectively.

Regarding `O=c1ccc(-c2cnc(C3CC(F)(F)C3)nc2)nn1Cc1ccc2c(c1)CCC2` [Compound 127], the IC50 in test [1] (setting [2]) was less than 2500 nM. The inhibition at 100 µM against cardiac myosin SII was 8%; against smooth muscle myosin S1, -6%.

As for `O=c1ccc(-c2cnc(C3CCC3)nc2)nn1Cc1ccc2c(c1)CC2` [Compound 109], the IC50 is less than 2500 nM in test [1] (setting [2]) and 100 nM in test [1] (setting [3]). Further, the inhibition at 100 µM at cardiac myosin SII is 9.7%; against smooth muscle myosin S1 it was -3.5%.

On to `O=c1ccc(-c2cnc(OCC(F)(F)F)nc2)nn1Cc1ccc2c(c1)CC1CC21` (stereo not shown) [Compound 156], for which the IC50 in test [1] (setting [2]) was less than 2500 nM; in test [1] (setting [3]) it was 900 nM. For the same compound, the values for the inhibition at 100 µM against cardiac myosin SII and on smooth muscle myosin S1 were 7% and -11%, respectively.

Turning to `O=c1cc2c(nn1Cc1ccc3c(c1)CC3)-c1cnc(OCC(F)(F)F)nc1CC2` [Compound 102], the results for the IC50 in test [1] (setting [2]) and in test [1] (setting [3]) were less than 2500 nM and 400 nM, respectively. For the same compound, the results for the inhibition at 100 µM at cardiac myosin SII and on smooth muscle myosin S1 were -5% and -2%, respectively.

Consider `N#CC1(COc2ncc(-c3ccc(=O)n(Cc4ccc5c(c4)CCC5)n3)cn2)CC1` [Compound 105], for which the IC50 is less than 2500 nM in test [1] (setting [2]) and 900 nM in test [1] (setting [3]). Besides, the inhibition at 100 µM on cardiac myosin SII and against smooth muscle myosin S1 was 16% throughout.

Regarding `O=c1ccc(-c2cnc(OCC(F)(F)F)nc2)nn1Cc1ccc2c(c1)C(F)(F)CC2` [Compound 93], the figures for the 50% inhibitory concentration (IC50) in test [1] (setting [2]) and in test [1] (setting [3]) were less than 2500 nM and 700 nM, respectively. In addition, the values for the inhibition at 100 µM against cardiac myosin SII and against smooth muscle myosin S1 were -16% and -14%, respectively.

As to `O=C1CCc2c(Cl)cc(Cn3nc(-c4cnc(OCC(F)(F)F)nc4)ccc3=O)cc21` [Compound 166], the IC50 in test [1] (setting [2]) is less than 2500 nM. Further, the inhibition at 100 µM on cardiac myosin SII was found to be 17%; against smooth muscle myosin S1, 6%.

Consider `CC(F)(F)COc1ncc(-c2ccc(=O)n(Cc3ccc4c(c3)CCC4)n2)cn1` [Compound 110], for which the values for the IC50 in test [1] (setting [2]) and in test [1] (setting [3]) were less than 2500 nM and 800 nM, respectively. Moreover, the values for the inhibition at 100 µM at cardiac myosin SII and on smooth muscle myosin S1 were 1% and -6%, respectively.

With `O=c1ccc(-c2cnc(Oc3ccnc(C(F)(F)F)c3)nc2)nn1Cc1ccc2c(c1)CCC2` [Compound 133], in test [1] (setting [2]), the IC50 was less than 2500 nM. Also, the inhibition at 100 µM against cardiac myosin SII is -4%; against smooth muscle myosin S1 it was 8%.

Consider `O=c1ccc(-c2cnc(OCCCCl)nc2)nn1Cc1ccc2c(c1)CC2` [Compound 70], for which, in test [1] (setting [2]), the IC50 is less than 2500 nM. Further, the inhibition at 100 µM against cardiac myosin SII turned out to be 18%.

For `O=c1ccc(-c2cnc(Oc3cncc(F)c3)nc2)nn1Cc1ccc2c(c1)CCC2` [Compound 115], the IC50 in test [1] (setting [2]) was less than 2500 nM. The inhibition at 100 µM on cardiac myosin SII and at smooth muscle myosin S1 was 3% throughout.

As to `O=c1ccc(-c2cnc(O[C@H]3CCOC3)nc2)nn1Cc1ccc2c(c1)CCC2` [Compound 120], the IC50 in test [1] (setting [2]) was less than 2500 nM; in test [1] (setting [3]), 700 nM. The inhibition at 100 µM against cardiac myosin SII was 14%; against smooth muscle myosin S1, -3%.

`O=c1ccc(-c2cnc(Oc3cncc(C(F)(F)F)c3)nc2)nn1Cc1ccc2c(c1)CCC2` [Compound 134]: the IC50 in test [1] (setting [2]) is less than 2500 nM. Besides, the inhibition at 100 µM at cardiac myosin SII was 1%; at smooth muscle myosin S1, 8%.

Consider `O=c1ccc(-c2cnc(OC3CCC(F)(F)CC3)nc2)nn1Cc1ccc2c(c1)CC2` [Compound 96], for which the IC50 in test [1] (setting [2]) was 2500 to 20000 nM. Besides, the inhibition at 100 µM on cardiac myosin SII is -9%.

For `O=c1ccc(-c2cnc(OCCCF)nc2)nn1Cc1ccc2c(c1)CC2` [Compound 69], the figures for the IC50 in test [1] (setting [2]) and in test [1] (setting [3]) were less than 2500 nM and 100 nM, respectively. In addition, the inhibition at 100 µM against cardiac myosin SII turned out to be 19%.

Regarding `O=c1ccc(-c2cnc(OCC(F)(F)F)nc2)nn1Cc1ccc2c(c1)CC1CC21` (stereo not shown) [Compound 161], the figures for the IC50 in test [1] (setting [2]) and in test [1] (setting [3]) were less than 2500 nM and 500 nM, respectively. In addition, at cardiac myosin SII, the “Cardiac myosin SII (Inhibition @ 100 μM)” value came out at 5%.
